Results on 5 compounds are retold here after patent US9879058B2, “Use of compounds that selectively modulate astrocytic release of substances through hemichannels of connexins and pannexins, without influencing gap junctions, for the treatment of psychiatric disorders” (Universidad Andres Bello, priority 2012, dated 2018).

Entries after “also recorded” stand apart in the source; their conditions may differ. Like-named read-outs stand apart in the source and are kept apart here. No end group written: not given here.

The test system of experiment [1] is Sprague Dowley rats. Briefly: Openfield test. It counts as in vivo, rat. As to conditions: for time in the center of the openfield (thigmotaxis): cacotheline 10 μM. The protocol:
A. Animals: All procedures involving animals were in accordance to NIH guidelines and with approval of the bioethical committee of the Universidad Andrés Bello. Sprague Dowley rats (˜60 d old, ˜250 g) were caged individually at 22° C., 12/12 h light/dark cycle. The rats remained in their home box throughout the study, and were removed only briefly for drug microinfusions. B. Drugs: For intra hippocampal microinjections Gap19 ([…] (SEQ ID NO: 3), LifeTein, South Plainfield, N.J., USA, >90% purity) was dissolved in PBS to yield a final solution of 100 μM and cacotheline was dissolved in sterile saline to a final concentration of 10 μM. For intravenous injections, cacotheline was dissolved to a final concentration of 10 μM in the blood stream, assuming circulating blood as 7% of body weight. Cacotheline was injected into the caudal vein under 4% isofluorane gas anesthesia. In a control group of rats sterile saline injection of equal volume was injected. C. Dye uptake: Gap junction permeability was determined at room temperature using the scrape-loading/dye transfer (SL/DT) technique, Hela cells were incubated with Carboxy-fluorescin (1 mg/ml) in the same Ca2+ free HEPES-buffered salt solution as above, then the test compound was added, followed byscrape-loading, which was performed with a razor blade. After 3 minutes the cells are washed with HEPES-buffered salt solution and mounted in Fluoromount and examined by epifluorescence. D. Apparatus: All behavioral essays were performed in an openfield made of Plexiglas (60 cm×40 cm) or a dark/light exploration box (70×40 cm; light compartment 40×40 cm, dark compartment 30×40 cm), illuminated by a white light bulb. A video camera was mounted at the top of the chamber to allow digital recording throughout the experiments. E. Surgery and histology: Under ketamine/xylazine anesthesia ([…], respectively), rats were stereotaxically implanted with bilateral 22-gauge stainless steel cannulas aimed 1.0 mm above the ventral hippocampus (5.0 mm posterior to Bregma, 5.0 mm lateral to the midline, and 6.0 mm ventral to the skull surface (Paxinos, G., Watson, C. (1998). The Rat Brain in Stereotaxic Coordinates; Press A, editor, San Diego). The cannulas were fixed with acrylic dental cement and secured by 4 skull screws. A stylus was placed inside the guide cannula to prevent clogging. Rats were given at least 7 days to recover before experimental procedures began.
In all experiments, stylus was removed from the guide cannula, and a 28-gauge injection cannula was inserted through the guide cannula, extending 1.0 mm beyond its tip into the ventral hippocampus. Drugs were infused slowly via the injection cannula, connected by PE20 tubing to Hamilton microsyringes driven by a microinfusion pump. Infusions were of 0.25 μl per hemisphere at a rate of 0.32 μl/min. Following drug infusion, injecting cannulaes were left in place for 10 minutes to allow drug diffusion away from the cannula tip. At the end of all experiments, animals were anesthetized as above and perfused intracardially with saline, 4% buffered paraformaldehyde. Brains were extracted and postfixed in 30% sucrose until density equaled that of sucrose. […] Animals with histological lesions beyond the size of the cannula tip and guide cannula diameter were excluded from the analysis.
F. Behavioral procedures: To assess the effects of TAT-Gap19 on locomotor activity, entire body movements were measured in the openfield and counted as the number of crossings (transitions) between virtual square subdivisions of 10 cm^2 measured offline from digital video recordings. Measures of anxiety included thigmotaxis, rearing activity in the openfield. Transitions between light and dark compartments, number of times the animal peaked from the dark compartment into the lit compartment, and time spent in the lit compartment were measured in the Dark/light box paradigm^(62, 63). G. Data Analysis: Data were expressed as Mean+SD. […]

Experiment [2] has as its system Sprague Dowley rats. Briefly: Contextual fear conditioning after intravenous injection. It counts as in vivo, rat. As to conditions: 10 minutes before training, 10 μM in the blood stream. The method, then: A. Animals: All procedures involving animals were in accordance to NIH guidelines. Sprague Dowley rats (˜60 d old, ˜250 g) were caged individually at 22° C., 12/12 h light/dark cycle. The rats remained in their home box throughout the study, and were removed only briefly for drug microinfusions. B. Drugs: Cacotheline (Pharmeks Ltd. Moscow, Russia) was dissolved in sterile saline to yield a final solution of 10 μM in the blood stream. As a control, only sterile saline injection of equal volume was used. Cacotheline was injected into the caudal vein under 4% isofluorane anesthesia. C. Apparatus: All behavioral essays were performed in a sound attenuating cubicle. Conditioning and testing were conducted in the same chamber. For conditioning, rats were placed in a Plexiglas chamber with a metal grid floor (40 cm×40 cm×40 cm). The chamber was dimly illuminated by a red light. A video camera was mounted at the top of each chamber to allow digital recording throughout the experiments. D. Behavioral procedures: The conditioning is based on the animal learning that a previously neutral stimulus (a conditioned stimulus, CS; e.g. a context) becomes predictive of a stressful stimulus (unconditioned stimulus, US; e.g. footshock). […] During the test, total seconds of freezing (immobility) were calculated for each rat when exposed to the conditioned context for 5 minutes without the footshock. […]

The next experiment has as its target T1, Cx43 gap junctions (Homo sapiens, UniProt P17302).
T1 construct: expressed in transfected cells; host or cells: HeLa
Briefly: Scrape-loading/dye transfer in Cx43 transfected Hela cells. Format: cell-based. The protocol:
Gap junction permeability was determined at room temperature using the scrape-loading/dye transfer (SL/DT) technique, Hela cells were incubated with Carboxy-fluorescin (1 mg/ml) in the same Ca2+ free HEPES-buffered salt solution as above, then the test compound was added, followed by scrape-loading, which was performed with a razor blade. After 3 minutes the cells are washed with HEPES-buffered salt solution and mounted in Fluoromount and examined by epifluorescence.
A. Animals: All procedures involving animals were in accordance to NIH guidelines and with approval of the bioethical committee of the Universidad Andrés Bello. Sprague Dowley rats (˜60 d old, ˜250 g) were caged individually at 22° C., 12/12 h light/dark cycle. The rats remained in their home box throughout the study, and were removed only briefly for drug microinfusions. B. Drugs: For intra hippocampal microinjections Gap19 ([…] (SEQ ID NO: 3), LifeTein, South Plainfield, N.J., USA, >90% purity) was dissolved in PBS to yield a final solution of 100 μM and cacotheline was dissolved in sterile saline to a final concentration of 10 μM. For intravenous injections, cacotheline was dissolved to a final concentration of 10 μM in the blood stream, assuming circulating blood as 7% of body weight. Cacotheline was injected into the caudal vein under 4% isofluorane gas anesthesia. In a control group of rats sterile saline injection of equal volume was injected. C. Dye uptake: Gap junction permeability was determined at room temperature using the scrape-loading/dye transfer (SL/DT) technique, Hela cells were incubated with Carboxy-fluorescin (1 mg/ml) in the same Ca2+ free HEPES-buffered salt solution as above, then the test compound was added, followed byscrape-loading, which was performed with a razor blade. After 3 minutes the cells are washed with HEPES-buffered salt solution and mounted in Fluoromount and examined by epifluorescence. […]

Another experiment deals with rats. Briefly: Forced swim test (FST). Format: in vivo, rat. As to conditions: intravenous, 10 μM in the blood stream, 10 minutes before the test. The protocol:
A. Methods: To assess depressive-like symptoms the forced swim test (FST) was employed, which was similar to that described elsewhere^(65). On training, rats were individually placed in a transparent Plexiglas cylinder (30 cm diameter×60 cm height) filled with water at 25±2° C. for 15 minutes. 24 h later, the animals were placed again in the cylinder for 5 minutes as described before. After initial vigorous swimming activity, swimming attempts normally cease and the animal adopts a characteristic immobile floating posture. Rats were scored for time to reach immobility and total immobility time by a trained observer from offline video recordings. Immobility was defined as the cessation of limb movements. B. Drugs: Cacotheline was dissolved to a final concentration of 10 μM into the blood stream, assuming circulating blood as 7% of body weight. Cacotheline was injected into the caudal vein under 4% isofluorane gas anesthesia 10 minutes before the behavioural test. In a control group of rats sterile saline injection of equal volume was injected. C. […] D. Discussion: A compound capable of increasing Cx43 hemichannel activity was able to decrease immobility in the FST, indication antidepressant effects. […] This implies that Cx43 modulators are useful to treat depression and other mood disorders.

Another experiment concerns the target T2, Cx30 hemichannels (Homo sapiens, UniProt O95452).
T2 construct: expressed in transfected cells; host or cells: HeLa
Briefly: EthBr dye uptake in Cx30 transfected Hela cells. It counts as cell-based. The method, then:
For visualization of dye uptake by captured images, Cx30 transfected Hela cells were exposed to 25 uM EthBr (Invitrogen, Eugene, Oreg.) for 5 min at room temperature. Then, cells were incubated with either HEPES-buffered salt solution containing 140 mM NaCl, 4 mM KCl, 1 mM CaCl2, 1 mM MgCl2, 5 mM glucose, […] or in calcium free HEPES-buffered salt solution (140 mM NaCl, 4 mM KCl, 5 mM glucose, […]). Then the test compound was added to both solutions followed by EthBr dissolved to a final 25 uM concentration. Cells are washed and mounted in Fluoromount and examined by epifluorescence.

The subject of a further experiment is Cx30 gap junctions. Briefly: Scrape-loading/dye transfer, Cx30 gap junctions in Hela cells. Format: cell-based. The method, then:
Gap junction permeability was determined at room temperature using the scrape-loading/dye transfer (SL/DT) technique, Hela cells were incubated with Carboxy-fluorescin (1 mg/ml) in the same Ca2+ free HEPES-buffered salt solution as above. Then the test compound was added. Scrape-loading was then performed with a razor blade. After 3 minutes the cells are washed with HEPES-buffered salt solution and mounted in Fluoromount and examined by epifluorescence.

The mark [3] stands for this setting: microinjected into ventral hippocampus.
The mark [4] stands for this setting: microinjected into ventral hippocampus, peptides 100 μM.

T1 sequence (P17302 whole entry): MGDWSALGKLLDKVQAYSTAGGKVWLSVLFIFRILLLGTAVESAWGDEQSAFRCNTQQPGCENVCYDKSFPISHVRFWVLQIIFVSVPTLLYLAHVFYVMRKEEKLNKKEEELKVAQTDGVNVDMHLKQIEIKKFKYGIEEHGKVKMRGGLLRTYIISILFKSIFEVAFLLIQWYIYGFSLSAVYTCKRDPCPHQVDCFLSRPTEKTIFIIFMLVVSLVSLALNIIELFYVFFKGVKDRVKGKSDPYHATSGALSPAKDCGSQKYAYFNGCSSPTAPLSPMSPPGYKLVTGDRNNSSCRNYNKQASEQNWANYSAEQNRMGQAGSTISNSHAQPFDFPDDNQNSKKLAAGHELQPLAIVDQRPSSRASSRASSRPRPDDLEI
T2 sequence (O95452 whole entry): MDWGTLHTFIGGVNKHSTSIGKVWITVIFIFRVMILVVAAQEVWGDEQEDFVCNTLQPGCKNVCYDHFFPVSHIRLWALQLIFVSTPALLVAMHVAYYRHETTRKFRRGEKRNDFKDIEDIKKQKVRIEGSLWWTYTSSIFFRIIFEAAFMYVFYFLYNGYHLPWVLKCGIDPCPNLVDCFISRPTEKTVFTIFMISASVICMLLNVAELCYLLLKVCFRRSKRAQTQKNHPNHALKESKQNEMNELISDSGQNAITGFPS

`O=C(O)C[C@@H]1OCC=C2CN3CC[C@]45C6=CC(=O)C(=O)C([N+](=O)[O-])=C6N[C@H]4[C@H]1[C@H]2C[C@H]35` [Cacotheline, 2,3-Dihydro-4-nitro-2,3-dioxo-9,10-secostrychnidin-10-oic acid]: the “locomotion (transitions) in the openfield” value (from here on “locomotion (transitions)”) in the experiment with Sprague Dowley rats [1] (intravenous, 10 μM in the blood stream) is “increase in locomotion at the openfield; also recorded: increase in total locomotion”. Moreover, in the experiment with Sprague Dowley rats [1] (setting [3]), the effect on anxiety result was “anxiolytic effects”. Also, the “time in the center of the openfield (thigmotaxis)” value (“time in the center” for short) was “significant increase in the time spent in the center of the openfield” with Sprague Dowley rats [1] (setting [4]) and “increase in time at the center of the openfield” in the experiment with Sprague Dowley rats [1] (microinjected into ventral hippocampus, peptides 100 μM, listed as cacotheline). In addition, the “freezing to conditioned context 24 h after training” value in the experiment on Sprague Dowley rats [2] was “increased freezing”; in the experiment on Sprague Dowley rats [2] (listed as cacotheline), “increase freezing”. The “Cx43 gap junctional coupling” value was “had no effects on Cx43 gap junctional coupling; also recorded: without affecting Cx43 gap junctions” at Cx43 gap junctions and “no effects on gap junctional coupling” at Cx43 gap junctions (listed as cacotheline). In addition, the “immobility in the FST” value with rats is on record as “significant decrease in immobility time”.
As to WRQAAFVDSY [Pnx1], in the experiment with Sprague Dowley rats [1] (setting [3]), the effect on anxiety entry is on record as “anxiolytic effects”. In the experiment on Sprague Dowley rats [1] (setting [4]), the “time in the center” value is listed as “increase in time at the center of the openfield; also recorded: increasing significantly the time in the center of the openfield” and the “locomotion (transitions)” value was “increasing significantly”.
Take YGRKKRRQRRRCYDHFFPVSHIR [TAT-Cx30]: the effect on anxiety result in the experiment on Sprague Dowley rats [1] (setting [3]) was “anxiolytic effects”. In the experiment on Sprague Dowley rats [1] (setting [4]), the “time in the center” value was “increase in time at the center of the openfield” and the “locomotion (transitions)” value is “increase in locomotion at the openfield”. In the experiment with Cx30 hemichannels, the Cx30 hemichannel activity result is “increase in Cx30 hemichannel activity”. The “Cx43 gap junctional coupling” value with Cx43 gap junctions is reported as “had no effects on Cx43 gap junctional coupling”.
Regarding YGRKKRRQRRRDAPALYSNLSKKRG [TAT-Cx30L4], the effect on anxiety result in the experiment on Sprague Dowley rats [1] (setting [3]) is “anxiolytic effects”. Besides, in the experiment with Sprague Dowley rats [1] (setting [4]), the “time in the center” value was “statistically significant increase in the time the animals spent in the center” and the “locomotion (transitions)” value is “tendency to increase locomotion”. Further, in the experiment with Cx30 hemichannels, the Cx30 hemichannel activity entry is reported as “increase hemichannel activity”. For the same compound, in the experiment with Cx30 gap junctions, the “Cx30 gap junctional communication” value is on record as “unaffected”.
Take “YGRKKRRQRRRRDLDLRDGP [TAT-Pnx1L5, pannexin 1 mimetic peptide]”: the effect on anxiety entry in the experiment with Sprague Dowley rats [1] (setting [3]) is on record as “anxiolytic effects”. Also, in the experiment on Sprague Dowley rats [1] (setting [4]), the “time in the center” value is given as “increasing significantly the time in the center of the openfield” and the “locomotion (transitions)” value was “increased locomotion at the openfield”. Moreover, the “locomotion (transitions)” value in the experiment on Sprague Dowley rats [1] (microinjected into ventral hippocampus, peptides 100 μM, listed as Pnx1Li) was “increasing significantly”.
